Where two headings read alike, the source gives them in different places. Where a SMILES comes first, the peptide text is derived from it. [ ]: non-standard residue; d: D form. The star is where a group is joined. DOTA = O=C(O)CN1CCN(CC(=O)O)CCN(CC(=O)*)CCN(CC(=O)O)CC1
What was measured:
[1] = Biodistribution experiments in normal mice after i.v. injection; assay type: in vivo; settings: i.v.; for tissue uptake dose at 10 min / tissue uptake dose at 1 h / tissue uptake dose at 3 h: male, ddY, mouse, in vivo, iv, total radioactivity; for tissue uptake dose at 10 min / tissue uptake dose at 1 h / tissue uptake dose at 3 h / F/B ratio (Femur:blood ratio): mice, mean (SD)
How it was run: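 Male ddY mice (6 weeks, 27–32 g) received tracer i.v. (37–740 kBq/100 μL); 4–5 per group sacrificed at 10, 60 and 180 min. Weighed tissues and whole left femur (bone) gamma-counted with background and decay correction.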

[2] = Urine analyses by RP-HPLC after i.v. injection; assay type: in vivo; settings: mice, urine from bladder at 1 h post-injection
Procedure: ^67Ga-DOTA-(L-Asp)14 was prepared according to a method described previously. ^67Ga-DOTA-(L-Asp)14 or ^67Ga-DOTA-(D-Asp)14 solution (370 kBq / 200 μL) was intravenously injected to 6-week-old male ddY mice. At 1 h post-injection, mice were sacrificed and their […] were taken from the bladders. After ultrafiltration (Microcon-30, Merck KGaA), the filtrate samples were analyzed by RP-HPLC at a flow rate of 1 mL/min with a gradient mobile phase from water containing 0.1% TFA to 20% methanol in water containing 0.1% TFA for 20 min.

`O=C(O)C[C@@H](NC(=O)[C@@H](CC(=O)O)NC(=O)[C@@H](CC(=O)O)NC(=O)[C@@H](CC(=O)O)NC(=O)[C@@H](CC(=O)O)NC(=O)[C@@H](CC(=O)O)NC(=O)[C@@H](CC(=O)O)NC(=O)[C@@H](CC(=O)O)NC(=O)[C@@H](CC(=O)O)NC(=O)[C@@H](CC(=O)O)NC(=O)[C@@H](CC(=O)O)NC(=O)[C@@H](CC(=O)O)NC(=O)[C@@H](CC(=O)O)NC(=O)[C@@H](CC(=O)O)NC(=O)CN1CCN(CC(=O)O)CCN(CC(=O)O)CCN(CC(=O)O)CC1)C(=O)O` [^67Ga-DOTA-(D-Asp)14, metal not drawn] ({DOTA}-[dD][dD][dD][dD][dD][dD][dD][dD][dD][dD][dD][dD][dD][dD]-OH) showed a tissue uptake dose at 10 min ([1]; 10 min after injection, footnote b, read-out: Biodistribution of radioactivity, Stomach) of 0.28 %ID, a tissue uptake dose at 10 min ([1]; 10 min after injection, read-out: Biodistribution of radioactivity, Blood) of 2.46 %ID and a tissue uptake dose at 10 min ([1]; 10 min after injection, read-out: Biodistribution of radioactivity, Bone (Femur)) of 11.9 %ID. For the same molecule, the tissue uptake dose at 10 min ([1]; 10 min after injection, read-out: Biodistribution of radioactivity, Brain) was 0.06 %ID, the tissue uptake dose at 10 min ([1]; 10 min after injection, read-out: Biodistribution of radioactivity, Heart) was 0.94 %ID and the tissue uptake dose at 10 min ([1]; 10 min after injection, read-out: Biodistribution of radioactivity, Kidney) was 8.15 %ID. For the same molecule, the tissue uptake dose at 10 min ([1]; 10 min after injection, read-out: Biodistribution of radioactivity, Large-intestine) was 0.4 %ID, the tissue uptake dose at 10 min ([1]; 10 min after injection, read-out: Biodistribution of radioactivity, Liver) was 0.51 %ID and the tissue uptake dose at 10 min ([1]; 10 min after injection, read-out: Biodistribution of radioactivity, Lung) was 1.75 %ID. The tissue uptake dose at 10 min ([1]; 10 min after injection, read-out: Biodistribution of radioactivity, Muscle) was 0.77 %ID, the tissue uptake dose at 10 min ([1]; 10 min after injection, read-out: Biodistribution of radioactivity, Pancreas) was 0.88 %ID and the tissue uptake dose at 10 min ([1]; 10 min after injection, read-out: Biodistribution of radioactivity, Small-intestine) was 0.55 %ID. For the same molecule, the tissue uptake dose at 10 min ([1]; 10 min after injection, read-out: Biodistribution of radioactivity, Spleen) was 0.48 %ID, the tissue uptake dose at 1 h ([1]; 60 min after injection, footnote b, read-out: Biodistribution of radioactivity, Stomach) was 0.07 %ID and the tissue uptake dose at 1 h ([1]; 60 min after injection, read-out: Biodistribution of radioactivity, Blood) was 0.09 %ID. It also gave a tissue uptake dose at 1 h ([1]; 60 min after injection, read-out: Biodistribution of radioactivity, Bone (Femur)) of 13 %ID, a tissue uptake dose at 1 h ([1]; 60 min after injection, read-out: Biodistribution of radioactivity, Brain) of 0.01 %ID and a tissue uptake dose at 1 h ([1]; 60 min after injection, read-out: Biodistribution of radioactivity, Heart) of 0.18 %ID. The tissue uptake dose at 1 h ([1]; 60 min after injection, read-out: Biodistribution of radioactivity, Kidney) was 1.21 %ID, the tissue uptake dose at 1 h ([1]; 60 min after injection, read-out: Biodistribution of radioactivity, Large-intestine) was 0.1 %ID and the tissue uptake dose at 1 h ([1]; 60 min after injection, read-out: Biodistribution of radioactivity, Liver) was 0.15 %ID. The tissue uptake dose at 1 h ([1]; 60 min after injection, read-out: Biodistribution of radioactivity, Lung) was 0.28 %ID, the tissue uptake dose at 1 h ([1]; 60 min after injection, read-out: Biodistribution of radioactivity, Muscle) was 0.16 %ID and the tissue uptake dose at 1 h ([1]; 60 min after injection, read-out: Biodistribution of radioactivity, Pancreas) was 0.27 %ID. It also gave a tissue uptake dose at 1 h ([1]; 60 min after injection, read-out: Biodistribution of radioactivity, Small-intestine) of 0.18 %ID, a tissue uptake dose at 1 h ([1]; 60 min after injection, read-out: Biodistribution of radioactivity, Spleen) of 0.12 %ID and a tissue uptake dose at 3 h ([1]; 180 min after injection, footnote b, read-out: Biodistribution of radioactivity, Stomach) of 0.06 %ID. The tissue uptake dose at 3 h ([1]; 180 min after injection, read-out: Biodistribution of radioactivity, Blood) was 0.03 %ID, the tissue uptake dose at 3 h ([1]; 180 min after injection, read-out: Biodistribution of radioactivity, Bone (Femur)) was 14.8 %ID and the tissue uptake dose at 3 h ([1]; 180 min after injection, read-out: Biodistribution of radioactivity, Brain) was 0.01 %ID. The tissue uptake dose at 3 h ([1]; 180 min after injection, read-out: Biodistribution of radioactivity, Heart) was 0.11 %ID, the tissue uptake dose at 3 h ([1]; 180 min after injection, read-out: Biodistribution of radioactivity, Kidney) was 0.54 %ID and the tissue uptake dose at 3 h ([1]; 180 min after injection, read-out: Biodistribution of radioactivity, Large-intestine) was 0.2 %ID. For the same molecule, the tissue uptake dose at 3 h ([1]; 180 min after injection, read-out: Biodistribution of radioactivity, Liver) was 0.05 %ID, the tissue uptake dose at 3 h ([1]; 180 min after injection, read-out: Biodistribution of radioactivity, Lung) was 0.03 %ID and the tissue uptake dose at 3 h ([1]; 180 min after injection, read-out: Biodistribution of radioactivity, Muscle) was 0.16 %ID. It also gave a tissue uptake dose at 3 h ([1]; 180 min after injection, read-out: Biodistribution of radioactivity, Pancreas) of 0.14 %ID, a tissue uptake dose at 3 h ([1]; 180 min after injection, read-out: Biodistribution of radioactivity, Small-intestine) of 0.12 %ID and a tissue uptake dose at 3 h ([1]; 180 min after injection, read-out: Biodistribution of radioactivity, Spleen) of 0.12 %ID. The “F/B ratio (Femur:blood ratio)” value ([1]; 10 min after injection) was 4.90 (0.70), the “F/B ratio (Femur:blood ratio)” value ([1]; 60 min after injection) was 180.99 (91.94) and the “F/B ratio (Femur:blood ratio)” value ([1]; 180 min after injection) was 526.37 (130.49). For the same molecule, the “Accumulation of radioactivity in bone (in words)” value ([1]; normal mice) was “high accumulation and retention of radioactivity in bone”, the “Radioactivity in the kidneys (in words)” value ([1]; normal mice) was “extremely low accumulation of radioactivity in the kidneys” and the “Ratio of the intact complex in urine” value [2] was 85.8 ± 17.4%.
